From PubChem BioAssay (NCI)
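Cultured in 96-well plates, cells were exposed to test compound for 48 hours across five concentrations. GI50 is the concentration that inhibits growth by half. TGI denotes the concentration required for complete inhibition of growth.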

Legend:
Assay in all cases: DTP human tumour cell line panel, 48 h
SK-MEL-5 melanoma = tested on: SK-MEL-5 melanoma
HOP-62 NSCLC = tested on: HOP-62 NSCLC
T-47D breast = tested on: T-47D breast
RXF 393 renal = tested on: RXF 393 renal
DU-145 prostate = tested on: DU-145 prostate
SW-620 colon = tested on: SW-620 colon
IGROV1 ovarian = tested on: IGROV1 ovarian
OVCAR-5 ovarian = tested on: OVCAR-5 ovarian
COLO 205 colon = tested on: COLO 205 colon
MDA-MB-435 = tested on: MDA-MB-435
PC-3 prostate = tested on: PC-3 prostate
TK-10 renal = tested on: TK-10 renal
NCI-H226 lung = tested on: NCI-H226 lung
SK-MEL-2 melanoma = tested on: SK-MEL-2 melanoma
OVCAR-4 ovarian = tested on: OVCAR-4 ovarian
SK-OV-3 ovarian = tested on: SK-OV-3 ovarian
HOP-92 NSCLC = tested on: HOP-92 NSCLC
SNB-75 CNS = tested on: SNB-75 CNS
HCT-15 colon = tested on: HCT-15 colon
OVCAR-3 ovarian = tested on: OVCAR-3 ovarian
SNB-19 CNS = tested on: SNB-19 CNS
RPMI-8226 leukemia = tested on: RPMI-8226 leukemia
MCF7 breast = tested on: MCF7 breast
M14 melanoma = tested on: M14 melanoma
A549 NSCLC = tested on: A549 NSCLC
LOX IMVI melanoma = tested on: LOX IMVI melanoma
786-0 renal = tested on: 786-0 renal
SF-295 CNS = tested on: SF-295 CNS
UO-31 renal = tested on: UO-31 renal
NCI-H460 lung = tested on: NCI-H460 lung
EKVX NSCLC = tested on: EKVX NSCLC
ACHN renal = tested on: ACHN renal
A498 renal = tested on: A498 renal
BT-549 breast = tested on: BT-549 breast
HL-60(TB) leukemia = tested on: HL-60(TB) leukemia
MALME-3M melanoma = tested on: MALME-3M melanoma
UACC-257 melanoma = tested on: UACC-257 melanoma
MDA-MB-231 breast = tested on: MDA-MB-231 breast
K-562 leukemia = tested on: K-562 leukemia
HT29 colon = tested on: HT29 colon
MOLT-4 leukemia = tested on: MOLT-4 leukemia
HCC-2998 colon = tested on: HCC-2998 colon
SF-268 CNS = tested on: SF-268 CNS
SK-MEL-28 melanoma = tested on: SK-MEL-28 melanoma
KM12 colon = tested on: KM12 colon
SF-539 CNS = tested on: SF-539 CNS
HS 578T breast = tested on: HS 578T breast
CAKI-1 renal = tested on: CAKI-1 renal
HCT-116 colon = tested on: HCT-116 colon
UACC-62 melanoma = tested on: UACC-62 melanoma
SR leukemia = tested on: SR leukemia
MDA-MB-468 breast = tested on: MDA-MB-468 breast
NCI-H23 lung = tested on: NCI-H23 lung
SN12C renal = tested on: SN12C renal
NCI/ADR-RES ovarian = tested on: NCI/ADR-RES ovarian
CCRF-CEM leukemia = tested on: CCRF-CEM leukemia
OVCAR-8 ovarian = tested on: OVCAR-8 ovarian

COc1ccc(OC)c(/C=C/C(=O)c2nc3ccccc3n2Cc2ccc(F)cc2)c1
GI50 (SK-MEL-5 melanoma): 2.73 µM
TGI (SK-MEL-5 melanoma): 10.1 µM
GI50 (HOP-62 NSCLC): 3.08 µM
TGI (HOP-62 NSCLC): 11.2 µM
GI50 (T-47D breast): 2.95 µM
TGI (T-47D breast): > 100 µM
GI50 (RXF 393 renal): 1.92 µM
TGI (RXF 393 renal): 4.41 µM
GI50 (DU-145 prostate): 3.53 µM
TGI (DU-145 prostate): > 100 µM
GI50 (SW-620 colon): 2.03 µM
TGI (SW-620 colon): 4.63 µM
GI50 (IGROV1 ovarian): 3.01 µM
TGI (IGROV1 ovarian): 11.1 µM
GI50 (OVCAR-5 ovarian): 2.45 µM
TGI (OVCAR-5 ovarian): 5.56 µM
GI50 (COLO 205 colon): 2.61 µM
TGI (COLO 205 colon): 8.08 µM
GI50 (MDA-MB-435): 2.02 µM
TGI (MDA-MB-435): 4.94 µM
GI50 (PC-3 prostate): 3.82 µM
TGI (PC-3 prostate): > 100 µM
GI50 (TK-10 renal): 3.26 µM
TGI (TK-10 renal): 17 µM
GI50 (NCI-H226 lung): 4.03 µM
TGI (NCI-H226 lung): 25.5 µM
GI50 (SK-MEL-2 melanoma): 1.94 µM
TGI (SK-MEL-2 melanoma): 4.19 µM
GI50 (OVCAR-4 ovarian): 5.02 µM
TGI (OVCAR-4 ovarian): > 100 µM
GI50 (SK-OV-3 ovarian): 11.4 µM
TGI (SK-OV-3 ovarian): > 100 µM
GI50 (HOP-92 NSCLC): 2.88 µM
TGI (HOP-92 NSCLC): 43.8 µM
GI50 (SNB-75 CNS): 1.54 µM
TGI (SNB-75 CNS): 6.66 µM
GI50 (HCT-15 colon): 1.62 µM
TGI (HCT-15 colon): 3.69 µM
GI50 (OVCAR-3 ovarian): 2.17 µM
TGI (OVCAR-3 ovarian): 5.6 µM
GI50 (SNB-19 CNS): 2.31 µM
TGI (SNB-19 CNS): 6.08 µM
GI50 (RPMI-8226 leukemia): 2.05 µM
TGI (RPMI-8226 leukemia): 5.89 µM
GI50 (MCF7 breast): 2.15 µM
TGI (MCF7 breast): > 100 µM
GI50 (M14 melanoma): 2.67 µM
TGI (M14 melanoma): 9.56 µM
GI50 (A549 NSCLC): 3.27 µM
TGI (A549 NSCLC): > 100 µM
GI50 (LOX IMVI melanoma): 1.56 µM
TGI (LOX IMVI melanoma): 3.06 µM
GI50 (786-0 renal): 2.93 µM
TGI (786-0 renal): 9.51 µM
GI50 (SF-295 CNS): 3.05 µM
TGI (SF-295 CNS): 13.2 µM
GI50 (UO-31 renal): 2.37 µM
TGI (UO-31 renal): 8.61 µM
GI50 (NCI-H460 lung): 1.67 µM
TGI (NCI-H460 lung): 4 µM
GI50 (EKVX NSCLC): 2.77 µM
TGI (EKVX NSCLC): > 100 µM
GI50 (ACHN renal): 2.94 µM
TGI (ACHN renal): 9.13 µM
GI50 (A498 renal): 34.8 µM
TGI (A498 renal): > 100 µM
GI50 (BT-549 breast): 2.61 µM
TGI (BT-549 breast): 7.6 µM
GI50 (HL-60(TB) leukemia): 1.57 µM
TGI (HL-60(TB) leukemia): 5.93 µM
GI50 (MALME-3M melanoma): 3 µM
TGI (MALME-3M melanoma): 14.3 µM
GI50 (UACC-257 melanoma): 4.03 µM
TGI (UACC-257 melanoma): 27.3 µM
GI50 (MDA-MB-231 breast): 2 µM
TGI (MDA-MB-231 breast): 4.43 µM
GI50 (K-562 leukemia): 2.52 µM
TGI (K-562 leukemia): > 100 µM
GI50 (HT29 colon): 2.34 µM
TGI (HT29 colon): 5.43 µM
GI50 (MOLT-4 leukemia): 2.15 µM
TGI (MOLT-4 leukemia): 7.98 µM
GI50 (HCC-2998 colon): 1.95 µM
TGI (HCC-2998 colon): 3.93 µM
GI50 (SF-268 CNS): 3.5 µM
TGI (SF-268 CNS): > 100 µM
GI50 (SK-MEL-28 melanoma): 2.18 µM
TGI (SK-MEL-28 melanoma): 4.68 µM
GI50 (KM12 colon): 2.52 µM
TGI (KM12 colon): 7.14 µM
GI50 (SF-539 CNS): 2.14 µM
TGI (SF-539 CNS): 4.67 µM
GI50 (HS 578T breast): 3.12 µM
TGI (HS 578T breast): > 100 µM
GI50 (CAKI-1 renal): 3.08 µM
TGI (CAKI-1 renal): > 100 µM
GI50 (HCT-116 colon): 1.61 µM
TGI (HCT-116 colon): 3.06 µM
GI50 (UACC-62 melanoma): 1.93 µM
TGI (UACC-62 melanoma): 5.06 µM
GI50 (SR leukemia): 2.2 µM
TGI (SR leukemia): 7.4 µM
GI50 (MDA-MB-468 breast): 2.11 µM
TGI (MDA-MB-468 breast): 5.8 µM
GI50 (NCI-H23 lung): 2.24 µM
TGI (NCI-H23 lung): 6.62 µM
GI50 (SN12C renal): 3.47 µM
TGI (SN12C renal): > 100 µM

Cn1cc(-c2cc3nc(-c4c[nH]c5ccccc45)cc(N)n3n2)c2ccccc21
GI50 (SK-MEL-5 melanoma): 1.95 µM
TGI (SK-MEL-5 melanoma): 4.1 µM
GI50 (NCI/ADR-RES ovarian): 1.78 µM
TGI (NCI/ADR-RES ovarian): 3.41 µM
GI50 (DU-145 prostate): 2.04 µM
TGI (DU-145 prostate): 4.73 µM
GI50 (IGROV1 ovarian): 1.77 µM
TGI (IGROV1 ovarian): 3.26 µM
GI50 (OVCAR-5 ovarian): 1.82 µM
TGI (OVCAR-5 ovarian): 3.3 µM
GI50 (COLO 205 colon): 1.75 µM
TGI (COLO 205 colon): 3.29 µM
GI50 (MDA-MB-435): 1.78 µM
TGI (MDA-MB-435): 3.46 µM
GI50 (TK-10 renal): 1.77 µM
TGI (TK-10 renal): 4.65 µM
GI50 (NCI-H226 lung): 2.2 µM
TGI (NCI-H226 lung): 4.98 µM
GI50 (SK-MEL-2 melanoma): 1.87 µM
TGI (SK-MEL-2 melanoma): 3.73 µM
GI50 (SK-OV-3 ovarian): 10.5 µM
TGI (SK-OV-3 ovarian): 46.8 µM
GI50 (HOP-92 NSCLC): 1.94 µM
TGI (HOP-92 NSCLC): 3.75 µM
GI50 (SNB-75 CNS): 1.74 µM
TGI (SNB-75 CNS): 3.93 µM
GI50 (HCT-15 colon): 1.6 µM
TGI (HCT-15 colon): 3.01 µM
GI50 (OVCAR-3 ovarian): 1.74 µM
TGI (OVCAR-3 ovarian): 3.4 µM
GI50 (SNB-19 CNS): 3.43 µM
TGI (SNB-19 CNS): 17.3 µM
GI50 (RPMI-8226 leukemia): 2.11 µM
TGI (RPMI-8226 leukemia): 5.07 µM
GI50 (MCF7 breast): 1.68 µM
TGI (MCF7 breast): 3.39 µM
GI50 (M14 melanoma): 1.75 µM
TGI (M14 melanoma): 3.34 µM
GI50 (LOX IMVI melanoma): 1.86 µM
TGI (LOX IMVI melanoma): 3.35 µM
GI50 (786-0 renal): 1.51 µM
TGI (786-0 renal): 2.94 µM
GI50 (SF-295 CNS): 1.64 µM
TGI (SF-295 CNS): 3.19 µM
GI50 (UO-31 renal): 1.54 µM
TGI (UO-31 renal): 2.93 µM
GI50 (CCRF-CEM leukemia): 1.95 µM
TGI (CCRF-CEM leukemia): 4.2 µM
GI50 (OVCAR-8 ovarian): 1.9 µM
TGI (OVCAR-8 ovarian): 3.97 µM
GI50 (EKVX NSCLC): 1.65 µM
TGI (EKVX NSCLC): 3.16 µM
GI50 (ACHN renal): 1.76 µM
TGI (ACHN renal): 3.22 µM
GI50 (A498 renal): 19.7 µM
TGI (A498 renal): 44.6 µM
GI50 (BT-549 breast): 12.4 µM
TGI (BT-549 breast): 54.4 µM
GI50 (HL-60(TB) leukemia): 1.5 µM
TGI (HL-60(TB) leukemia): 3.22 µM
GI50 (MALME-3M melanoma): 1.87 µM
TGI (MALME-3M melanoma): 3.37 µM
GI50 (MDA-MB-231 breast): 1.94 µM
TGI (MDA-MB-231 breast): 3.35 µM
GI50 (K-562 leukemia): 1.74 µM
TGI (K-562 leukemia): 3.54 µM
GI50 (MOLT-4 leukemia): 1.77 µM
TGI (MOLT-4 leukemia): 3.92 µM
GI50 (HCC-2998 colon): 1.65 µM
TGI (HCC-2998 colon): 3.06 µM
GI50 (SF-268 CNS): 2.4 µM
TGI (SF-268 CNS): 7.17 µM
GI50 (SK-MEL-28 melanoma): 1.74 µM
TGI (SK-MEL-28 melanoma): 3.18 µM
GI50 (SF-539 CNS): 1.75 µM
TGI (SF-539 CNS): 3.13 µM
GI50 (HS 578T breast): 2.55 µM
TGI (HS 578T breast): 6.28 µM
GI50 (CAKI-1 renal): 1.68 µM
TGI (CAKI-1 renal): 3.31 µM
GI50 (HCT-116 colon): 1.8 µM
TGI (HCT-116 colon): 3.3 µM
GI50 (UACC-62 melanoma): 1.64 µM
TGI (UACC-62 melanoma): 3.06 µM
GI50 (SR leukemia): 1.95 µM
TGI (SR leukemia): 5.9 µM
GI50 (MDA-MB-468 breast): 1.55 µM
TGI (MDA-MB-468 breast): 2.93 µM
GI50 (NCI-H23 lung): 1.75 µM
TGI (NCI-H23 lung): 3.32 µM
GI50 (SN12C renal): 1.87 µM
TGI (SN12C renal): 3.49 µM
